Experimental data: patent US20120095006A1, “TREATMENT OF PULMONARY HYPERTENSION” (Pfizer Inc., priority 1999, published 2012)

Columns and labels:
[1] = test system: human patients having various causes of pulmonary hypertension; assay: Clinical study: continuous sildenafil infusion in patients with pulmonary hypertension, PVR and SVR determined; type: in vivo; conditions: infusion to plasma level 100, 300 and 500 ng/ml, FIG. 1
Experimental: A number of patients having various causes of pulmonary hypertension were selected. The patients were then assessed in order to establish baseline data, including haemodynamic parameters (by right heart catheterization), blood gas profile (via an arterial line and pulse oximetry). The patients were then tested with 40 ppm of nitric oxide (NO) by inhilation for 5 minutes to assess the reversibility of pulmonary hypertension. Haemodynamic parameters were reassessed within 5 minutes of NO and then further assessed 5-20 minutes later. When the pulmonary arterial pressure levels had returned to baseline (+−5%) inhalation haemodynamic parameters were assessed again and patients were continuously infused with sildenafil at rates to control the plasma level at 100, 300 and 500 nanogrammes per milliliter. A few patients received placebo instead of sildenafil in double-blind fashion. Haemodynamic parameters were recorded throughout infusion. From the data collected during the trial, the PVR and SVR were determined.

[2] = test system: hypoxic pulmonary vasoconstriction in anaesthetized Beagle dogs; assay: Hypoxic pulmonary vasoconstriction in anaesthetised dogs, intravenous administration; type: in vivo, dog
Experimental: The anaesthetized dog is the model of choice in which to study the effect of drugs, owing to the similarity between canine and human haemodynamics, and additionally, to ensure cinsistency between pharmacological and toxicological species.
Beagle dogs of either sex were anaesthetized with intravenous sodium pentobarbitone (Sagatal [trademark], 30 to 45 mg/kg) and anesthesia maintained with an infusion of Sagatal (6 mg/kg/h) into the right femoral vein. The dogs were initially intubated via the mouth, and then via a tracheotomy, and artificially respired using an Ugo Basille dog respirator. […] Respiratory gases (inspired O2 and end tidal CO2) were monitored by a Normocap 200 (trademark) respiratory gas monitor (Datex Instrumentarium Corp.). The depth of anesthesia was assessed by carefully monitoring arterial blood pressure and heart rate. […] Pulmonary artery pressure (PAP) and pulmonary artery wedge pressure were recorded from this catheter. This catheter was also connected to a cardiac index computer (Gould Instruments) and cardiac output determined by thermodilution following rapid injection of 5 ml saline at room temperature. […] Lead II ECG was recorded from 2 stainless steel needles inserted subcutaneously in the right arm and left leg. […] All data from the primary signals (PAP, Arterial blood pressure (ABP) and ECG) was recorded on a Po-ne-mah (trademark) data acquisition system. […]

[3] = test system: hypoxic pulmonary vasoconstriction in anaesthetized dogs; assay: Hypoxic pulmonary vasoconstriction in anaesthetised dogs, inhaled administration; type: in vivo, dog; conditions: inhaled (nebulised), lowest of doses 30, 80, 230 and 770, hypoxic challenge, FIG. 3
Experimental: This separate study was performed in analogous fashion to intravenous administration, except that doses were administered into the inspiratory limb of the respiratory circuit using a Penta-sonic Nebuliser (deVilbiss). Each inhaled dose consisted of a timed nebulisation of the solution at a respiration rate of 15 breaths/min finishing 5 min before an hypoxic challenge. Sildenafil and vehicle were administered to a maximum of four dogs per group (i.e. total of eight dogs). At the end of the first vehicle experiment an additional hypoxic challenge was done following administration of an inhaled dose of sildenafil. Doses were made up by dissolving sildenafil in vehicle [sodium acetate buffer (0.038 M)] to the required concentration. Four doses of 30, 80, 230 and 770 microgrammes/weight of dog in kilogrammes were administered.

[4] = test system: corpus cavernosum of the penis; conditions: dog model; cited from earlier work

## CCCc1nn(C)c2c(=O)[nH]c(-c3cc(S(=O)(=O)N4CCN(C)CC4)ccc3OCC)nc12 [sildenafil, 5-[2-ethoxy-5-(4-methylpiperazin-1-ylsulfonyl)phenyl]-1,6-dihydro-1-methyl-3-propylpyrazolo[4,3-d]pyrimidin-7-one]
[1]
  effect on PVR: significant reduction in PVR
  effect on SVR compared with effect on PVR: substantially lower than the effect on PVR
[2]; FIG. 2
  effect on SVR compared with effect on PVR: significantly lower than on PVP
[2]; lowest of doses 1.5, 4.5, 15 and 45, hypoxic challenge
  dose producing maximal effect on PVR (reversing hypoxic pulmonary vasoconstriction): 1.5 microgrammes/kg
[3]
  dose producing maximal effect on PVR: 30 microgrammes/kg
[4]
  calculated intravenous dose producing half-maximal potentiation (ED50) of nerve-induced pressure rises: 12 microgrammes/kg
